Results from US20260315609A1, “MIXED VASOPRESSIN RECEPTOR AGONIST-ANTAGONIST FOR TREATING END-STAGE LIVER DISEASE AND COMPLICATIONS ASSOCIATED THEREOF” (FERRING B.V., priority 2022, published 2026).
Where two headings read alike, the source gives them in different places. Starred links: 1 amine or outer side, 2 acyl side, 3 side chain; linkers in the order of their positions; H or OH if unused. Positions of bridges follow the written chain, without caps; N, C: chain ends. Non-standard residues stand in square brackets, D forms with d. Residues, ends and D or L forms follow the SMILES beside them. Chains are numbered I, II in the order given. *: point of attachment. isoGln = NC(=O)[C@H](CCC(=O)[*:2])N[*:1]; εLys = N[C@@H](CCCCN[*:1])C(=O)[*:2]; Dab = NCC[C@H](N)C(=O)O; PhAc = O=C(Cc1ccccc1)*

Tests used:
Assay type in all cases: in vivo, human
[1] = PK of Compound 1, 6-hour intravenous infusion in healthy men and women (Period 1)
Experimental: The administered volume was recorded for each subject.
In some instances, endpoints of the study were: vital signs (e.g., supine blood pressure, pulse, and body temperature), electrocardiogram (ECG) (e.g., intervals, rhythm, and morphology), cardiac function (e.g., cardiac output using echocardiography), peripheral blood flow/tissue perfusion (e.g., by skin color), venous blood gases (e.g., lactate), urinary output, clinical chemistry, hematology, hemostasis, and urinalysis, adverse events (AEs) (e.g., type, frequency, and intensity), pharmacokinetics (e.g., AUC, AUCt, AUCτ, % Extrap AUC, Cmax, tmax, CL, Vz, t1/2, MRT, Vss, F, Ae, and CLR), and metabolite pattern in plasma and urine.

[2] = Safety and tolerability / adverse events in healthy subjects
Text: The terms “adverse event” or “AE” as used herein, refer to an untoward medical occurrence in an individual, such as an individual participating in a clinical trial. In some instances, an AE is an unfavorable and/or unintended sign, symptom, or disease, such as being temporally associated with the use of an investigative medicinal product (IMP), whether or not considered to be caused by the IMP. For example, an AE can include accidental injuries, reasons for any change in medication (drug and/or dose), reasons for any medical, nursing or pharmacy consultation, or reasons for admission to hospital or surgical procedures, and overdoses and medication errors with or without clinical consequences. In some instances, AEs are anticipated based on the pharmacological effect of the IMP. In some instances, an AE is a laboratory abnormality, vital sign or finding from physical or gynecological examination assessed as clinically significant by the investigator. In some instances, a pre-treatment adverse event is any untoward medical occurrence arising or observed between signing of informed consent and the first administration of the IMP. In some instances, a treatment emergent adverse event is an AE occurring after the administration of the IMP and within the time of residual drug effect, or a pre-treatment adverse event or pre-existing medical condition that worsens in intensity after administration of the IMP and within the time of residual drug effect.
Injection site reactions were assessed by the Investigator in treatment Period 2 only, immediately after, 0.5, 4, and 24 hours after subcutaneous administration of the study drug on Days 1 to 5. The injection site reactions to be assessed were erythema, pain, pruritus, oedema, bruising, and pallor, each to be assessed as none, mild, moderate, or severe. Injection site reactions other than those described above or persisting longer than 24 hours were classified as adverse events (AEs).
Blood samples for hematology and hemostasis parameters were collected on Day −1, and at 2, and 4 hours after the administration on Day 1, pre-dose, and 3 hours after the administration on Days 2-4, pre-dose, and at 2, and 6 hours after the administration on Day 5 and at follow-up. The actual sampling times were recorded.
Urinalysis was performed locally by means of a dip-stick test. […] In case any result of the dipstick was abnormal and clinically significant, a new urine test was to be performed. If the abnormal result was confirmed, further examination could be initiated at the discretion of the Investigator. Clinically significant abnormal findings were reported as AEs. The metabolite pattern of Compound 1 in plasma and urine were measured.

[3] = Preceding clinical study, Cmax; details: 0.3 mg
Experimental: The originally planned escalating doses were 0.1, 0.3, 1, 3, 6, and 10 mg, respectively. […] The doses and/or infusion rates could be adjusted based on recommendations from the SRC.

[4] = i.v., Period 1, active treatment
[5] = s.c., Period 2, active treatment

In the case of `CC[C@H](C)[C@@H]1NC(=O)[C@H](Cc2ccccc2)NC(=O)[C@@H](N)CSSC[C@@H](C(=O)N2CCC[C@H]2C(=O)N[C@@H](CCNC(=O)[C@@H](N)CCCCNC(=O)[C@H](CCCCNC(C)=O)NC(=O)CC[C@H](NC(=O)[C@H](CCCNC(=N)N)NC(=O)[C@@H]2CCCN2C(=O)[C@H](C)NC(=O)[C@H](CC(N)=O)NC(=O)[C@H](CCC(N)=O)NC(=O)[C@H](Cc2ccccc2)NC(=O)[C@@H](Cc2ccc(OC)cc2)NC(=O)Cc2ccccc2)C(N)=O)C(=O)NCC(N)=O)NC(=O)[C@H](CC(N)=O)NC(=O)[C@H](CCC(N)=O)NC1=O` [Compound 1, Glycinamide, L-cysteinyl-L-phenylalanyl-L-isoleucyl-L-glutaminyl-L-asparaginyl-L-cysteinyl-L-prolyl-N4-(phenylacetyl-O-methyl-D-tyrosyl-L-phenylalanyl-L-glutaminyl-L-asparaginyl-L-alanyl-L-prolyl-L-arginyl-L-isoglutamyl-N5-acetyl-L-lysyl-L-ε-lysyl)-L-2,4-diaminobutyryl-, cyclic (1→6)-disulfide] (I: H-CFIQNCP[Dab]G-NH2 / II: PhAc-[dY](Me)FQNAPR[isoGln]K(Ac)[εLys]; disulfide I:1-I:6; amide I:8-II:C), the CL renal ([1]; human, in vivo, iv, 0.1 mg, i.v. 0.1 mg, read-out: Renal CL, geometric mean (converted)) is reported as 14.5 mL/min, the CL renal ([1]; human, in vivo, iv, 0.1 mg, i.v. 0.1 mg, read-out: Renal CL, mean (converted)) is reported as 14.5 mL/min and the CL renal ([1]; human, in vivo, iv, 0.3 mg, i.v. 0.3 mg, read-out: Renal CL, geometric mean (converted)) is reported as 11 mL/min. The CL renal ([1]; human, in vivo, iv, 0.3 mg, i.v. 0.3 mg, read-out: Renal CL, mean (converted)) was 11 mL/min, the CL renal ([1]; human, in vivo, iv, 0.45 mg, i.v. 0.45 mg, read-out: Renal CL, geometric mean (converted)) was 14 mL/min and the CL renal ([1]; human, in vivo, iv, 0.45 mg, i.v. 0.45 mg, read-out: Renal CL, mean (converted)) was 14.8 mL/min. The CL renal ([1]; human, in vivo, iv, 0.6 mg, i.v. 0.6 mg, read-out: Renal CL, geometric mean (converted)) was 15.5 mL/min, the CL renal ([1]; human, in vivo, iv, 0.6 mg, i.v. 0.6 mg, read-out: Renal CL, mean (converted)) was 15.8 mL/min and the CL renal ([1]; human, in vivo, iv, 0.9 mg, i.v. 0.9 mg, read-out: Renal CL, geometric mean (converted)) was 14.8 mL/min. The CL renal ([1]; human, in vivo, iv, 0.9 mg, i.v. 0.9 mg, read-out: Renal CL, mean (converted)) was 15.8 mL/min, the Vd ([1]; human, in vivo, iv, read-out: distribution volume (summary)) was 15 to 20 L and the “terminal half-life (summary)” value ([1]; i.v.) was “about 1.5 hours”. The “total clearance (summary)” value ([1]; i.v.) was “about 13 L/h”, the “AUC, geometric mean” value ([1]; i.v. 0.1 mg) was 6.96 ng·h/mL and the “AUC, mean” value ([1]; i.v. 0.1 mg) was 7.01 ng·h/mL. For the same compound, the “Cmax, geometric mean” value ([1]; i.v. 0.1 mg) was 1.18 ng/mL, the “Cmax, mean” value ([1]; i.v. 0.1 mg) was 1.19 ng/mL and the “T1/2, harmonic mean” value ([1]; i.v. 0.1 mg) was 1.2 h. The “Tot. CL, geometric mean” value ([1]; i.v. 0.1 mg) was 14.4 L/h, the “Tot. CL, mean” value ([1]; i.v. 0.1 mg) was 14.5 L/h and the “Vss, geometric mean” value ([1]; i.v. 0.1 mg) was 21.7 L. For the same compound, the “Vss, mean” value ([1]; i.v. 0.1 mg) was 21.8 L, the “tmax, mean” value ([1]; i.v. 0.1 mg) was 5.4 h and the “tmax, median” value ([1]; i.v. 0.1 mg) was 5.0 h. For the same compound, the “AUC, geometric mean” value ([1]; i.v. 0.3 mg) was 24.6 ng·h/mL, the “AUC, mean” value ([1]; i.v. 0.3 mg) was 24.9 ng·h/mL and the “Cmax, geometric mean” value ([1]; i.v. 0.3 mg) was 4.45 ng/mL. For the same compound, the “Cmax, mean” value ([1]; i.v. 0.3 mg) was 4.49 ng/mL, the “T1/2, harmonic mean” value ([1]; i.v. 0.3 mg) was 1.2 h and the “Tot. CL, geometric mean” value ([1]; i.v. 0.3 mg) was 12.2 L/h. The “Tot. CL, mean” value ([1]; i.v. 0.3 mg) was 12.3 L/h, the “Vss, geometric mean” value ([1]; i.v. 0.3 mg) was 14.5 L and the “Vss, mean” value ([1]; i.v. 0.3 mg) was 15.0 L. The “tmax, mean” value ([1]; i.v. 0.3 mg) was 5.2 h, the “tmax, median” value ([1]; i.v. 0.3 mg) was 5.5 h and the “AUC, geometric mean” value ([1]; i.v. 0.45 mg) was 34.1 ng·h/mL. For the same compound, the “AUC, mean” value ([1]; i.v. 0.45 mg) was 34.5 ng·h/mL, the “Cmax, geometric mean” value ([1]; i.v. 0.45 mg) was 6.20 ng/mL and the “Cmax, mean” value ([1]; i.v. 0.45 mg) was 6.26 ng/mL. The “Tot. CL, geometric mean” value ([1]; i.v. 0.45 mg) was 13.2 L/h, the “Tot. CL, mean” value ([1]; i.v. 0.45 mg) was 13.3 L/h and the “Vss, geometric mean” value ([1]; i.v. 0.45 mg) was 15.2 L. The “Vss, mean” value ([1]; i.v. 0.45 mg) was 15.5 L, the “tmax, mean” value ([1]; i.v. 0.45 mg) was 5.0 h and the “tmax, median” value ([1]; i.v. 0.45 mg) was 5.0 h. The “AUC, geometric mean” value ([1]; i.v. 0.6 mg) was 46.5 ng·h/mL, the “AUC, mean” value ([1]; i.v. 0.6 mg) was 47.5 ng·h/mL and the “Cmax, geometric mean” value ([1]; i.v. 0.6 mg) was 8.32 ng/mL. For the same compound, the “Cmax, mean” value ([1]; i.v. 0.6 mg) was 8.45 ng/mL, the “Tot. CL, geometric mean” value ([1]; i.v. 0.6 mg) was 12.9 L/h and the “Tot. CL, mean” value ([1]; i.v. 0.6 mg) was 13.2 L/h. For the same compound, the “Vss, geometric mean” value ([1]; i.v. 0.6 mg) was 15.4 L, the “Vss, mean” value ([1]; i.v. 0.6 mg) was 16.3 L and the “tmax, mean” value ([1]; i.v. 0.6 mg) was 5.4 h. The “tmax, median” value ([1]; i.v. 0.6 mg) was 6.0 h, the “AUC, geometric mean” value ([1]; i.v. 0.9 mg) was 71.8 ng·h/mL and the “AUC, mean” value ([1]; i.v. 0.9 mg) was 72.5 ng·h/mL. The “Cmax, geometric mean” value ([1]; i.v. 0.9 mg) was 12.7 ng/mL, the “Cmax, mean” value ([1]; i.v. 0.9 mg) was 12.8 ng/mL and the “T1/2, harmonic mean” value ([1]; i.v. 0.9 mg) was about 1.7 h. For the same compound, the “T1/2, mean” value ([1]; i.v. 0.9 mg) was 2.0 h, the “Tot. CL, geometric mean” value ([1]; i.v. 0.9 mg) was 12.5 L/h and the “Tot. CL, mean” value ([1]; i.v. 0.9 mg) was 12.7 L/h. The “Vss, geometric mean” value ([1]; i.v. 0.9 mg) was 15.3 L, the “Vss, mean” value ([1]; i.v. 0.9 mg) was 15.5 L and the “tmax, mean” value ([1]; i.v. 0.9 mg) was 5.3 h. For the same compound, the “tmax, median” value ([1]; i.v. 0.9 mg) was 6.0 h, the “dose proportionality of AUC and Cmax” value ([1]; i.v., 0.1-0.9 mg) was “proportionality for both parameters” and the “harmonic mean terminal half-life” value ([1]; i.v., dose groups other than 0.6 and 0.9 mg) was 1.2 to 1.3 h. For the same compound, the “exposure (AUC, Cmax), women versus men” value ([1]; i.v., also s.c.) was “higher exposure in women than in men”, the terminal half-life ([1]; route not stated) was 1.5 to 2 h and the “severe AEs” value ([2]; i.v. 0.1 mg (bradycardia)) was “One”. For the same compound, the “TEAEs regarded as ADRs” value ([2]; i.v., 34 subjects on active treatment) was 87, the “serious AEs” value ([2]; i.v., Period 1) was “No serious AEs occurred” and the “number of TEAEs” value [2, 4] was 94. For the same compound, the “subjects with TEAEs” value [2, 4] was 35 of the 48, the “maximum tolerated s.c. dose (MTD)” value ([2]; s.c.) was “about 0.1 mg” and the “severe AEs” value ([2]; s.c. 0.1 mg (abdominal pain)) was 3. The “subjects with moderate oedema and mild pain at injection site” value ([2]; s.c. 0.1 mg, 30 min) was 1 subject, the “severe AEs” value ([2]; s.c. 0.3 mg (abdominal pain, back pain), 1 subject) was 2 and the “serious AEs leading to discontinuation” value ([2]; s.c. 0.3 mg (elevated troponin I)) was 1. For the same compound, the injection site reactions ([2]; s.c. (bolus) injection) was “Erythema, pallor, and pruritus of mild severity”, the “TEAEs regarded as ADRs” value ([2]; s.c., 9 subjects on active treatment) was 87 and the “AE leading to death” value ([2]; s.c., Period 2) was “No AE led to death”. The “number of TEAEs” value [2, 5] was 87, the “subjects with TEAEs” value [2, 5] was 9 subjects and the tolerability ([2]; single i.v. infusion, about 0.9 mg or less) was “safe and well tolerated”. For the same compound, the Cmax ([3]; 6 hour i.v. infusion) was “up to 6 ng/mL” and the Cmax ([3]; s.c. injection) was “up to 2.5 ng/mL”.
